Test results reported in patent publication US8642074B2, “Thermosensitive liposomes containing therapeutic agents” (Celsion Corporation, priority 2007, dated 2014).
Where “and” joins values, the source holds several entries; their conditions need not be identical. Equal values may be shown once.

Columns and labels:
[1] = In vivo drug distribution in heated and non-heated leg muscle, liposome vs free docetaxel (Example 2); parameters: species or system BALB/c mice
Protocol: Six female BALB/c mice (20±2 g) were randomly separated into 3 groups. The mice were anesthetized and put on a Styrofoam board with a hole in it. One leg of the mouse was pulled through the hole to other side of the board. The board was floated in a water bath to heat the leg at 43.5±0.5° C. for 15 min. The mice then received a tail vein injection of either liposomes at a dose of 10 mg/kg or the same dose of Taxotere (control: prepared according to the manufacturers specifications) The one leg from each mouse was then heated for 30 min. after injection and then sacrificed. Muscles from the heated and non-heated legs were excised. Drug was extracted from a fixed weight of muscle tissue using the extraction method described above. The extracted drug was analyzed by HPLC.

[2] = test system: Lewis lung carcinoma cells; assay: In vivo efficacy in mice bearing Lewis lung tumors with local heating; parameters: species or system Kunming mice; conditions: day 18, 75 mg/m^2 on days 8, 12, 16
Protocol: Twelve female Kunming mice, between 7-9 weeks old and weighing 20±2 g were used. Lewis lung carcinoma cells (3×10^6 cells in 0.1 ml of PBS.) were implanted subcutaneously into the right lower leg of each mouse. Tumors were allowed to grow to 4-6 mm in diameter before starting treatment.
The 12 mice were stratified by tumor volume and randomized to 3 treatment groups: saline, free docetaxel and the thermosensitive liposomes of the invention.
Docetaxel-containing thermosensitive liposomes of the invention were prepared as described above and stored at 2-8° C. until use. Treated animals were injected with 75 mg/m^2 docetaxel either in a thermosensitive liposome of the invention or as non-liposomal Taxotere prepared according to the manufacturer's specifications.
The treatment was started on day 8 after the tumor implantation and was repeated on day 12 and day 16. Mice in all treatment groups were anesthetized with an IP injection of pentobarbital (80 mg/kg); treatment was administered in a volume of 0.2 ml via tail vein injection. This dose of anesthesia provided adequate immobilization for the 1-h treatment period.
Except for the saline group, all treatment groups were given an equivalent dose of 75 mg/m^2 of docetaxel. Immediately after injection, the mice were positioned in specially designed holders that allowed the isolated leg tumor to be placed in a water bath for 30 minutes. The water bath temperature was set at 43° C. This water bath temperature has been calibrated previously to give tumor temperatures of 42° C. All the mice were sacrificed at day 18. The tumors were surgically excised and the tumor weights were recorded. The tumor growth inhibition was calculated as follows: Tumor Inhibition Ratio=(Vs−Vx)/Vs
Where: Vs is tumor volume of saline group, Vx is the tumor volume of treatment group.

drug concentration in heated compared with non heated tissue ([1]; Example 2, 10 mg/kg tail vein): the same | Adrug/Aref % (heated leg) ([1]; muscle, leg heated at 43.5±0.5° C., 10 mg/kg tail vein, HPLC, Groups 1-3, 10 mg/kg): 5.46% and 6.53% and 5.48% | Adrug/Aref % (non-heated leg) ([1]; muscle, non-heated leg, 10 mg/kg tail vein, HPLC, Groups 1-3, 10 mg/kg): 5.48% and 6.29% and 5.32%
Compound: CC(=O)O[C@@]12CO[C@@H]1C[C@H](O)[C@@]1(C)C(=O)[C@H](O)C3=C(C)[C@@H](OC(=O)[C@H](O)[C@@H](NC(=O)OC(C)(C)C)c4ccccc4)C[C@@](O)([C@@H](OC(=O)c4ccccc4)[C@H]21)C3(C)C [Docetaxel, docetaxel]
Tumor Weight Average ([2]; group average, tumor heated 30 min, in g (unit assumed)): 1.002 | Tumor Weight ([2]; individual mice, tumor heated 30 min at 42° C., listed as Docetaxel Injection, in g (unit assumed)): 0.500 and 0.118 and 1.380 and 2.010 | Inhibition % ([2]; vs saline group, tumor heated 30 min): 77.91%
